“Also recorded” adds a separate entry of the source.

Series [1] relates to top 2 (HL-60 nuclear extract). As to the kind of experiment: Induction of DNA double-strand breaks in SV40 DNA in presence of HL-60 nuclear extract. The format is biochemical. How it is done: (§1) Chemicals, and enzymes: Azatoxin and its derivatives, as well as the demethyldesoxypodophyllotoxin (DMDP) and demethylepipodophyllotoxin (DMEP), were synthesized by conventional methods. The compounds m-AMSA and mitoxantrone were obtained from the Drug Synthesis and Chemistry Branch, National Cancer Institute, Bethesda, Md. The compounds VP-16 and VM-26 were obtained from Bristol-Myers Company (Wallingford, Conn.). Drug stock solutions were made in dimethylsulfoxide at 10 mM. Further dilutions were made in distilled water. Various other reagents, including simian virus 40 (SV40) and c-myc human DNA inserts in plasmid pBR322, restriction endonucleases, DNA topoisomerase I, T4 polynucleotide kinase, calf intestine phosphatase, agarose and polyacrylamide/bis, were purchased from Bethesda Research Laboratories (Gaithersburg, Md.), from the American Type Culture Collection (Rockville, Md.) or from New England Biolabs (Beverly, Mass.). [Gamma-^32 P]ATP was purchased from New England Nuclear Research Products (Boston, Mass.).
Preparation of end-labeled DNA fragments: DNA fragments were 5' end-labeled as described, for example, by Fesen and Pommier (1989), supra. Briefly, native DNA was first linearized with a restriction enzyme, then the 5'-DNA termini were dephosphorylated with calf alkaline phosphatase and labeled with [gamma-^32 P]ATP using T4 polynucleotide kinase. For double-strand breaks assays using HL-60 nuclear extract, SV40 DNA was digested with BclI endonuclease and labeled at both DNA termini. For sequencing experiments, SV40 and c-myc DNAs were first 5'-end labeled at the XhoII and XbaI restriction sites, respectively. Then, in order to generate uniquely 5'-end-labeled fragments, labeled DNA was subjected to a second enzyme digestion, PflMI for SV40, and EcoRI plus HindIII for c-myc DNA. The resulting DNA fragments were separated by agarose gel electrophoresis and isolated by electroelution. […]
For agarose gel analysis, 3 μl (10×) loading buffer (0.3% bromophenol blue, 16% Ficoll, 10 mM Na2 HPO4) was added to each sample which was then heated at 65° C. for 1-2 minutes before loading into an agarose gel made in (1×) TBE (89 mM Tris, 89 mM boric acid, 2 mM EDTA, pH8), in accordance with Fesen & Pommier (1989), supra. […] The quantification of drug-induced DNA double-strand breaks in the presence of HL-60 nuclear extract was effected as described in the next paragraph.
Radioactive gels were counted in betascope 603 blot analyzer. […] Drug-induced cleavage was expressed as: [formula] where C. and T. are the counts for cleaved and total DNA, respectively, in presence of nuclear extract without drug.
Drug-induced DNA double-strand breaks were measured first in SV40 DNA in the presence of HL-60 nuclear extracts. […]

Series [2] deals with T1, purified murine leukemia top 2 (Mus musculus, UniProt Q01320).
T1 construct: single 170 kDa band on silver-stained SDS-PAGE
T1 sequence (Q01320 whole entry): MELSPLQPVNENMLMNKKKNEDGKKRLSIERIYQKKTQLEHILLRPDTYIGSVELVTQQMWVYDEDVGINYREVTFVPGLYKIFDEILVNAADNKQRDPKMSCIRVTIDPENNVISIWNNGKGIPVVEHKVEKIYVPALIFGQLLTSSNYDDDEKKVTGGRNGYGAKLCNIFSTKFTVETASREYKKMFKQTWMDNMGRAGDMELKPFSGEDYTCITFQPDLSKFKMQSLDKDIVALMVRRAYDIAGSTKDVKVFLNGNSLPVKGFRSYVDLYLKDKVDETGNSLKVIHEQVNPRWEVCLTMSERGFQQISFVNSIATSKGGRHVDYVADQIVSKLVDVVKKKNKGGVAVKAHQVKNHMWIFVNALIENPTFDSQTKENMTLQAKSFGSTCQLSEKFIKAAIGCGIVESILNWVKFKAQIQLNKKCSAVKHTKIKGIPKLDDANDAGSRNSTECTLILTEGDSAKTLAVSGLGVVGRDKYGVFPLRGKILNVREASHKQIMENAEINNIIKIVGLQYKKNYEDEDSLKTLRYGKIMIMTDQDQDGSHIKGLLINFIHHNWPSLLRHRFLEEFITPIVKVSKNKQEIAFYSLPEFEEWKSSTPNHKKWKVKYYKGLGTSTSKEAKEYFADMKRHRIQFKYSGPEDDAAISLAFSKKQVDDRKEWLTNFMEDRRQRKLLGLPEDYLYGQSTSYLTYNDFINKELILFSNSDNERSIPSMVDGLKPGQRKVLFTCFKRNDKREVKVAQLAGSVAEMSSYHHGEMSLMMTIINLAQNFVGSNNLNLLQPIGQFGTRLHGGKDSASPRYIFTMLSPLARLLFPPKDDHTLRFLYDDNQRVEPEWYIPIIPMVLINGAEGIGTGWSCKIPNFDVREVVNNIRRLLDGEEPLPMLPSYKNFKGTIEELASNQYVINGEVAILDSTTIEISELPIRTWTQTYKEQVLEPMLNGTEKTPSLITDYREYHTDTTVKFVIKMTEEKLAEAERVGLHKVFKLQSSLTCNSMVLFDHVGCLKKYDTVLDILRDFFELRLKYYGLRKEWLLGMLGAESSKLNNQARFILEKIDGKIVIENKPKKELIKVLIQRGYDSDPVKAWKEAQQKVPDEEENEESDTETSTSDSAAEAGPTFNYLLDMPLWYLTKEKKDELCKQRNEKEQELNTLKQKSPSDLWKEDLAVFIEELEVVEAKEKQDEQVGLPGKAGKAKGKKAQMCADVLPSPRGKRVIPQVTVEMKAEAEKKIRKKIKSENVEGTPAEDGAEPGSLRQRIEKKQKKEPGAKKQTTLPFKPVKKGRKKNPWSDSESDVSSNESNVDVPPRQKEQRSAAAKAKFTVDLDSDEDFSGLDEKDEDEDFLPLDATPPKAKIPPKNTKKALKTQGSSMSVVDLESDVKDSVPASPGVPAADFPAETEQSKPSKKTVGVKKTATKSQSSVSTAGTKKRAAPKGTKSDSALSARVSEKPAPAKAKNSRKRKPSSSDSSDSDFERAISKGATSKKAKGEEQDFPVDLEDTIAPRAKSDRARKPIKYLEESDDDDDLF
As to the kind of experiment: Sequencing of topoisomerase II cleavage sites (SV40 and c-myc DNA). The format is biochemical. The note with it: for top 2 cleavage sites induced (number/amount): SV40 and c-myc DNA, purified murine top 2. As for the experimental part: as §1
(§2) DNA topoisomerase II was purified from mouse leukemia L1210 cell nuclei as described, for example, by Pommier et al. (1985), supra, and was stored at -70° C. in 40% (v/v) glycerol, 0.35 M NaCl, 5 mM MgCl2, 1 mM KH2 PO4, 0.2 mM dithiothreitol and 0.1 mM phenylmethanesulfonyl fluoride (pH 6.4). The purified enzyme yielded a single 170 kDa band after silver staining of SDS-polyacrylamide gels, in accordance with the description of Pommier et al., Cancer Res. 46: 3075-81 (1986).
Preparation of end-labeled DNA fragments: DNA fragments were 5' end-labeled as described, for example, by Fesen and Pommier (1989), supra. Briefly, native DNA was first linearized with a restriction enzyme, then the 5'-DNA termini were dephosphorylated with calf alkaline phosphatase and labeled with [gamma-^32 P]ATP using T4 polynucleotide kinase. For double-strand breaks assays using HL-60 nuclear extract, SV40 DNA was digested with BclI endonuclease and labeled at both DNA termini. For sequencing experiments, SV40 and c-myc DNAs were first 5'-end labeled at the XhoII and XbaI restriction sites, respectively. Then, in order to generate uniquely 5'-end-labeled fragments, labeled DNA was subjected to a second enzyme digestion, PflMI for SV40, and EcoRI plus HindIII for c-myc DNA. The resulting DNA fragments were separated by agarose gel electrophoresis and isolated by electroelution. Purification by phenol-chloroform extraction and ethanol precipitation were included between each step and at the end of the labeling procedures, pursuant to Pommier et al., J. Molec. Biol. 222: 909-24 (1991).
Topoisomerase II-induced DNA cleavage reactions: DNA fragments were equilibrated with or without drug in 10 mM Tris-HCl, pH 7.5, 50 mM KCl, 5 mM MgCl2 0.1 mM EDTA, 1 mM ATP and 15 μg/ml bovine serum albumin for 5 minutes before addition of purified topoisomerase II (40 to 70 ng) or HL-60 nuclear extract in 20 μl final reaction volume. Reactions were stopped by adding sodium dodecyl sulfate (SDS) to a final concentration of 1% and proteinase K to 400 μg/ml, followed by incubation for 1 hour at 40° C.
For DNA sequence analysis, samples were precipitated with ethanol and resuspended in 2.5 μl loading buffer (80% formamide, 10 mM NaOH, 1 mM EDTA, 0.1% xylene cyanol and 0.1% bromophenol blue). Samples were heated to 90° C. and immediately loaded into DNA sequencing gels (6% polyacrylamide; 19:1, acrylamide:bis) containing 7M urea in (1×) TBE buffer. Electrophoresis was at 2500 V (60 W) for 4 hours. Gels were dried on 3M paper sheets and autoradiographed with Kodak XAR-2 film. See Pommier et al. (1991), supra.
Induction of top 2 cleavage by azatoxin was tested directly with the use of purified murine leukemia top 2. […] Sites of cleavage were also determined by DNA sequencing in the 5' flank of c-myc first intron.

The subject of series [3] is top 2. The series is described as follows: Inhibition of top 2-mediated relaxation of native SV40 DNA. The format is biochemical, mouse. As for the experimental part:
as §2
Two different assays were conducted to illuminate the nature of azatoxin's effects vis-a-vis DNA relaxation. To study the inhibition of top 2 catalytic activity, topoisomerase reactions were performed with 0.4 μg native SV40 DNA in 30 μl reaction buffer for 30 minutes at 37° C. and stopped by adding SDS to a final concentration of 1% and proteinase K to 400 μg/ml, followed by incubation for 1 hour at 42° C., essentially as described by Fesen & Pommier (1989), supra. Agarose gel electrophoresis was performed in 1% gels made in Tris-Acetate-EDTA (TAE) buffer (40 mM Tris-Acetate, pH 7.6, 10 mM Na2 EDTA). Gels were run at 2 V/cm overnight, washed in water and then stained with 1 μM ethidium bromide for 45 minutes. After an additional 45 minutes destaining in 1 mM Mg2 SO4, the DNA was visualized under UV light and photographed with a Polaroid type 57 film.

For series [4], the system named is SV40 DNA. As to the kind of experiment: DNA unwinding (intercalation) assay with excess topoisomerase I. The format is biochemical, simian virus 40. As for the experimental part:
To assess DNA unwinding, see Pommier et al., Nucleic Acids Res. 15: 6713-31(1987), the DNA was relaxed first by treatment for 15 minutes with top 1 (20 units), after which the test agent was added. These steps were carried out at 37° C. DNA-agent-top 1 mixtures were incubated for an additional 30 minutes and then stopped as described above. Samples were then subjected to agarose gel electrophoresis as described above.
This was also the case for the 2 azatoxin isomers, 8 and 10, and for the demethylepipodophyllotoxins, DMDP and DMEP. Similar results were obtained with supercoiled DNA.

Series [5] has as its system panel of sixty human tumor cells lines. The series is described as follows: Growth inhibition / cytotoxicity against NCI panel of sixty human tumor cell lines. The format is cell-based. An excerpt: FIG. 1 is a graphical representation of results generated by testing the inhibitory activity of an illustrative compound within the present invention against panel of tumor cell lines which is a standard of the National Cancer Institute Developmental Therapeutics Program [GI50: "50% growth inhibition"; TGI: "[…]"; LC50: "50% lethal concentration"].
See Yang et al., Cancer Res. 45:5872-76 (1985), and Liu (1989), supra, at 361-63. […] Pursuant to the convention of Paull et al., J. Nat'l Cancer Inst. […] See also Monks et al., J. Nat'l Cancer Inst. 83: 757-66 (1991), and Boyd, Principles & Practice of Oncology3:1-12 (1989).
(§3) Thus, azatoxin effectively prevents tubulin polymerization in vitro at concentrations in the range of 1 to 10 μM.

Series [6] relates to tubulin. The series is described as follows: in vitro tubulin polymerization assay. The format is biochemical. As for the experimental part: as §3
For series [7], the system named is cells (protein-linked DNA breaks). The series is described as follows: protein-linked DNA breaks in cells. The format is cell-based. The note with it: compared to other top 2 inhibitors.

Take `COc1cc([C@@H]2c3[nH]c4ccccc4c3C[C@H]3COC(=O)N32)cc(OC)c1O` [Azatoxin, 5R, 11aS-3-One-5,4,11,11a-tetrahydro-5-(3,5-dimethoxy-4-hydroxyphenyl) -1H, 6H-oxazolo[3', 4': 1,6]pyrido[3,4-b]indole]: the “DNA cleavage potency (in words)” value in series [1] (SV40 DNA, HL-60 nuclear extract, compared to VP-16) is recorded as “comparable to that of VP-16”. The “cleavage above 10 μM, concentration dependence” value in series [1] (above 10 μM) was “cleavage occurred at many sites and was proportional to the logarithm of azatoxin concentration”. In addition, in series [1] (up to 1 mM), the “suppression of DNA cleavage at high drug concentrations” value is given as “not suppressed at high drug concentrations (up to 1 mM)”. Also, in series [2], the “top 2 cleavage potency (in words)” value is on record as “potent top 2 inhibitor”; the “top 2 cleavage sites induced (number/amount)” value was “induced many cleavage sites both in the SV40 and the c-myc DNA fragments”. In addition, in series [2] (listed as azatoxin), the “top 2 cleavage sites induced (number/amount)” value is “induced more cleavage sites than mitoxantrone, m-AMSA, VM-26 or VP-16; also recorded: induces the largest number of top 2 cleavage sites both in SV40 and c-myc DNA”. In series [2] (compared with other top 2 inhibitors), the “top 2 cleavage pattern” value is “cleavage pattern differing from those induced by other top 2 inhibitors”. In series [3], the “production of linear / nicked DNA” value is recorded as “produce a substantial amount of linear DNA without significant increased of nicked DNA”. The “inhibition of top 2-mediated relaxation” value in series [3] (30 minutes, 37° C.) is “inhibits top 2-mediated relaxation of native SV40 DNA”. In addition, the “DNA unwinding / intercalation conclusion” value in series [4] is “does not intercalate into DNA”. The DNA unwinding result in series [4] (relaxed SV40 DNA, excess topoisomerase I, concentrations as high as 1 mM) is on record as “did not induce detectable DNA unwinding even at drug concentrations as high as 1 mM”. In series [5] (FIG. 1 means graph), the “cytotoxicity to tumor cells (in words)” value is “cytotoxicity of aratoxin to cells associated with disseminated cancers (leukemias) as well as several consolidated cancers (non-small cell lung and colon)”. In addition, the “growth inhibition of human tumor cell lines (in words)” value in series [5] (sixty cell lines: leukemia, melanoma, lung, colon, kidney, ovary, CNS) is recorded as “significant inhibitory activity”. Further, the “tubulin inhibition (in words)” value in series [6] is “potent tubulin inhibitor”. Further, the “inducing protein-linked DNA breaks in cells” value in series [7] is given as “very active in inducing protein-linked DNA breaks in cells”.

For the origin of these results see US5622960A, “Topoisomerase II inhibitors and therapeutic uses therefor” (The United States of America as represented by the …, priority 1992, dated 1997).
